Test results as given in US20100331348A1, “TROPANE DERIVATIVES USEFUL AS PESTICIDES” (SYNGENTA CROP PROTECTION, INC., priority 2007, published 2010).
Where two headings read alike, the source gives them in different places.

Tests used:
[1] = test system: Erysiphe graminis f.sp. tritici; assay: Erysiphe graminis f.sp. tritici (wheat powdery mildew) leaf disk assay; format: in vivo; details: Blumeria graminis, foliar, 96 h, preventive, four days after inoculation, read-out: control of fungal infection, Erysiphe graminis fsp. tritici
[2] = test system: Puccinia recondita f.sp. tritici; assay: Puccinia recondita f.sp. tritici (wheat brown rust) leaf disk assay; format: in vivo; details: foliar, 216 h, preventive, nine days after inoculation, read-out: control of fungal infection, Puccinia recondita f.sp. tritici
Heliothis virescens = Heliothis virescens (Tobacco budworm) egg test on artificial diet; details: 96 h, read-out: control of Heliothis virescens
Pyricularia oryzae = assay: whole plant or invertebrate; format: in vivo; details: foliar, 96 h
Pythium ultimum = Pythium ultimum (Damping off) growth inhibition in potato dextrose broth; format: cell-based; details: Globisporangium ultimum, 48 hours, read-out: control of fungal infection, Pythium ultimum
Tetranychus urticae = details: foliar, 192 h, read-out: control of Tetranychus urticae
Aedes aegypti = Aedes aegypti (Yellow fever mosquito) larvae test; format: in vivo; details: 48 h
Phytophthora infestans = assay: whole plant or invertebrate; format: in vivo; details: foliar, 96 h, read-out: control of fungal infection, Phytophthora infestans
Plutella xylostella = Plutella xylostella (Diamond back moth) artificial diet test; details: 120 h, read-out: control of Plutella xylostella
Plasmopara viticola = Plasmopara viticola (downy mildew of grapevine) leaf disk assay; format: in vivo; details: foliar, 168 h, preventive, seven days after inoculation, read-out: control of fungal infection, Plasmopara viticola
[3] = read-out: control of fungal infection, Pyricularia oryzae (at least 60% list)
[4] = read-out: control of fungal infection, Pyricularia oryzae (at least 80% list)

Structure (SMILES)	pest or weed control at 200 ppm [1]	pest or weed control at 200 ppm [2]	pest or weed control at 200 ppm (Heliothis virescens)	pest or weed control at 200 ppm (Pyricularia oryzae; [3])	pest or weed control at 200 ppm (Pyricularia oryzae; [4])	inhibition of growth at 200 ppm (Pythium ultimum)	pest or weed control at 200 ppm (Tetranychus urticae)	pest or weed control at 2 ppm (Aedes aegypti)	pest or weed control at 200 ppm (Phytophthora infestans)	pest or weed control at 200 ppm (Plutella xylostella)	pest or weed control at 200 ppm (Plasmopara viticola)
Fc1cc(Cl)cnc1OC1C[C@H]2CC[C@@H](C1)N2c1ncnc2sccc12 (stereo partly shown) [Example 1.72]	≥ 80%	≥ 80%	≥ 80%	≥ 60%	≥ 80%						
FC(F)(F)c1ccc(OC2C[C@H]3CC[C@@H](C2)N3c2ncnc3ccsc23)nc1 (stereo partly shown) [Example 2.77]	≥ 80%	≥ 80%		≥ 60%		≥ 60%					
FC(F)(F)c1ccc(OC2C[C@H]3CC[C@@H](C2)N3c2ncnc3ccccc23)nc1 (stereo partly shown) [Example 2.85]	≥ 80%		≥ 80%	≥ 60%			≥ 80%	≥ 80%			
CCc1ncnc(N2[C@@H]3CC[C@H]2CC(Oc2ccc(C)nc2)C3)c1Cl (stereo partly shown) [Example 2.151]	≥ 80%					≥ 60%		≥ 80%			
CCC(=O)c1ccc(OC2C[C@H]3CC[C@@H](C2)N3c2ncnc(CC)c2Cl)cc1 (stereo partly shown) [Example 2.166]		≥ 80%	≥ 80%				≥ 80%	≥ 80%	≥ 80%		
COCc1ncnc(N2[C@@H]3CC[C@H]2CC(Oc2ccc(C(F)(F)F)cn2)C3)c1OC (stereo partly shown) [Example 2.167]	≥ 80%		≥ 80%								
Cn1nc(C(F)(F)F)cc1C(=O)N1[C@@H]2CC[C@H]1CC(Oc1ccc(C(F)(F)F)cn1)C2 (stereo partly shown) [Example 2.222]	≥ 80%		≥ 80%								
CCc1ncnc(N2C3CCC2CC(=CCOc2cccc(F)c2)C3)c1Cl [Example 3.12]		≥ 80%	≥ 80%		≥ 80%			≥ 80%		≥ 80%	
CCc1ncnc(N2C3CCC2CC(=CCOc2ccc(Cl)c(OC)c2)C3)c1Cl [Example 3.13]		≥ 80%	≥ 80%		≥ 80%			≥ 80%			
Cc1ccc(OCC=C2CC3CCC(C2)N3c2ncnc3sccc23)cc1 [Example 3.30]		≥ 80%	≥ 80%		≥ 80%			≥ 80%	≥ 80%		≥ 80%
C#CCN(CC#C)C1C[C@H]2CC[C@@H](C1)N2c1ncnc(CC)c1Cl (stereo partly shown) [Example 4.19]		≥ 80%	≥ 80%								
CCc1ncnc(N2C3CCC2CC(=NOCC2CC2)C3)c1Cl [Example 5.3]	≥ 80%	≥ 80%				≥ 60%		≥ 80%			
CCc1ncnc(N2C3CCC2CC(=NOCc2ccccc2)C3)c1Cl [Example 5.5]	≥ 80%	≥ 80%	≥ 80%					≥ 80%	≥ 80%	≥ 80%	
CCc1ncnc(N2C3CCC2CC(=NOCc2ccc(C#N)cc2)C3)c1Cl [Example 5.14]	≥ 80%	≥ 80%	≥ 80%		≥ 80%					≥ 80%	
CCc1ncnc(N2C3CCC2CC(=NOCc2ccc(OC)cc2)C3)c1Cl [Example 5.16]	≥ 80%	≥ 80%	≥ 80%				≥ 80%	≥ 80%		≥ 80%	≥ 80%
CCc1ncnc(N2C3CCC2CC(=NOCc2cc(F)ccc2F)C3)c1Cl [Example 5.73]	≥ 80%	≥ 80%	≥ 80%	≥ 60%				≥ 80%		≥ 80%	
CCc1ncnc(N2C3CCC2CC(=NOCc2ccc(Br)cc2F)C3)c1Cl [Example 5.85]			≥ 80%				≥ 80%			≥ 80%	
CCc1ncnc(N2C3CCC2CC(=NOCc2cc(F)c(F)cc2F)C3)c1Cl [Example 5.87]	≥ 80%	≥ 80%	≥ 80%					≥ 80%		≥ 80%	
CCc1ncnc(N2C3CCC2CC(=NOCc2noc(C)n2)C3)c1Cl [Example 5.92]	≥ 80%	≥ 80%	≥ 80%				≥ 80%	≥ 80%		≥ 80%	
Cc1ccc(CON=C2CC3CCC(C2)N3c2ncnc3sccc23)cc1 [Example 5.145]	≥ 80%	≥ 80%	≥ 80%	≥ 60%			≥ 80%	≥ 80%	≥ 80%	≥ 80%	≥ 80%
N#Cc1ccc(CON=C2CC3CCC(C2)N3c2ncnc3sccc23)cc1 [Example 5.163]	≥ 80%	≥ 80%	≥ 80%		≥ 80%			≥ 80%	≥ 80%	≥ 80%	
Fc1ccc(F)c(CON=C2CC3CCC(C2)N3c2ncnc3sccc23)c1F [Example 5.228]	≥ 80%	≥ 80%		≥ 60%			≥ 80%	≥ 80%	≥ 80%	≥ 80%	≥ 80%
CCCCC1COC2(CC3CCC(C2)N3c2ncnc3sccc23)O1 (stereo not shown) [Example 6.3]	≥ 80%		≥ 80%					≥ 80%	≥ 80%	≥ 80%	≥ 80%
Cc1ccc(CC2CC3CCC(C2)N3c2ncnc3sccc23)cc1 (stereo not shown) [Example 7.8]		≥ 80%	≥ 80%	≥ 60%	≥ 80%			≥ 80%		≥ 80%	≥ 80%
COc1ccc(CC2CC3CCC(C2)N3c2ncnc3sccc23)cc1 (stereo not shown) [Example 7.11]		≥ 80%	≥ 80%	≥ 60%			≥ 80%	≥ 80%			≥ 80%
CCc1ncnc(N2C3CCC2CC(Cc2ccc(C)cc2)C3)c1Cl (stereo not shown) [Example 7.26]			≥ 80%					≥ 80%		≥ 80%	
CCc1ncnc(N2C3CCC2CC(Cc2ccc(OC)cc2)C3)c1Cl (stereo not shown) [Example 7.32]		≥ 80%	≥ 80%				≥ 80%	≥ 80%		≥ 80%	
